The term MIC90 denotes an inhibitory concentration at the 90% level, which refers to growth in some studies and to a panel of isolates in others. For orientation: Cmax means the peak of the concentration-time curve. In general, Tmax refers to the time from dosing to the highest level. As a reminder, the AUC(0-inf) is the area under the concentration-time curve extrapolated to infinity. Low readings indicate low exposure, high ones high exposure. Broadly, the AUC(0-t) is the area under the concentration-time curve up to a stated or last time point. Read a high AUC(0-t) as high exposure. A word on the half-life: it is the time in which the quantity being followed falls by half. Read a high half-life as slow loss.

In brackets after ≈: the same amount, converted by molar mass. Several values for one entry are separate records, joined by “and”; a condition that tells them apart may be missing. Identical values can stand only once. Counter-ions that a name gives are not always drawn. Like-named read-outs stand apart in the source and are kept apart here.

The subject of series [1] is Mycobacterium tuberculosis H37Rv. Kind of series: Minimum inhibitory concentration (MIC90) against Mycobacterium tuberculosis H37Rv, Middlebrook 7H9, 96-well plate, 15 days. It is filed as cell-based. The conditions noted are these: Mycobacterium tuberculosis H37Rv, 15 days of incubation, 90% inhibition of growth, visual reading.
Series [2] can be described thus: Pharmacokinetics and lung tissue distribution in mice, LC-MS/MS. In kind it is in vivo, Balb/C mice. The conditions noted are these: 100 mg/kg. Here is the method:
In this example, the pharmacokinetic parameters and lung tissue distribution of the deuterated compounds YF027, YF032, YF036, and YF044 and their respective non-deuterated control compounds (A, B, C, and D) were determined.
Balb/C mice, male (1 group at each time point, 5 mice per group, 55 mice per compound in total), 7-8 weeks old, weighing about 20 g, animal source: Beijing Vital River Laboratory Animal Technology Co., Ltd.
The test compound was completely dissolved in an 8% Tween-80 aqueous solution. A 10 mg/mL drug liquid was prepared for intraperitoneal injection and intragastric administration.
Single intragastric administration was performed at a dose of 100 mg/kg. The pharmacokinetic differences between the deuterated compounds YF027, YF032, YF036, and YF044 and their respective non-deuterated controls A, B, C, and D were compared.
The mice were fasted overnight before administration. In the experiment, orbital venous blood and lung tissue were collected from the mice at time points of no administration group (0 min) and 10 min, 20 min, 30 min, 1 h, 2 h, 3 h, 4 h, 6 h, 8 h, and 24 h after intragastric administration, and about 300 µL of blood was collected from the eyeballs each time.
The collected blood sample was placed in an anticoagulation tube, and quickly inverted and mixed well. The tube was temporarily placed on ice after being labeled. The blood samples temporarily stored on ice were subjected to low-temperature centrifugation within 1 h at 4 °C at 3000 rpm for 10 min. The supernatant obtained after centrifugation was plasma. The plasma was transferred to a new centrifuge tube and stored in a refrigerator at -80 °C for subsequent detection.
The lung tissues of the mice were collected, washed with pre-cooled normal saline to remove the residual blood and tissue fluid, dried with absorbent paper, weighed with a balance, and placed into a centrifuge tube. The tubes were marked and stored in a refrigerator at -80 °C.
The concentrations of the compounds of the present disclosure and control compounds in plasma and lung tissue were determined using LC-MS/MS. Table 2. Pharmacokinetic parameters of compound YF027 of the present disclosure and control compound A

Series [3] relates to Mycobacterium tuberculosis H37Rv. It is filed as in vivo, BALB/c mice.
A further series deals with liver microsomes. The experiment in a line: Liver microsome incubation of positive control group (positive substrates). In kind it is in vitro ADME, mouse. Here is the method: This example was to detect the CYP450 metabolic enzyme phenotype of the deuterated compound YF027 and its non-deuterated control compound A (using a CYP450 enzyme metabolic phenotype research kit (recombinant enzymatic method/7 enzymes)-mouse liver microsome test).
• a. The test compound was prepared into a 40 mM stock solution for later use. 2.5 µL of the stock solution was taken and diluted with DMSO to a test compound concentration of 200 µM, and the compound at this concentration was used in subsequent tests. • b. The working solution concentration of the mixed positive substrates, phenacetin and testosterone, was 200 µM.
1) The components of the kit were thawed in an ice bath. The mixture was well mixed by vortexing and then placed on ice for later use. 2) In addition to the microsomes, the other components of the incubation systems were mixed according to the ratios and well mixed by pipetting, and the ratios of the incubation systems are shown below; Table 6. Incubation system of positive control group
3) Except for the negative control group (Table 9), 3.125 µL of liver microsomes was added to each of the above incubation systems to prepare 125 µL of reaction solution. The reaction solutions were well mixed by vortexing, and then placed in a water bath at 37 °C to initiate the reaction. A timer was set. […]
A general note: Microsomes from liver hold many membrane-bound enzymes, among them those of drug oxidation.

Where [4] appears, read: Balb/C mice, single intragastric administration, plasma.
Where [5] appears, read: Balb/C mice, single intragastric administration, plasma, 1440 min.
The mark [6] stands for this setting: Mycobacterium tuberculosis, H37RV, 360 h.

In series [1], “3,9-Dihydroxy-8-((4-(1-hydroxybutyl-1-d)piperidin-2,2,6,6-d4-1-yl)methyl)benzo[5,6]oxepino[4,3-b]benzofuran-7(5H)-one hydrochloride [YF044]” had an MIC90 of 0.0078 µg/mL. Moreover, in series [2] (mouse, in vivo, po), the “AUC0-∞” value worked out at 111067.0 ng·h/mL, the CL was determined as 150 mL/min/kg, the maximum concentration (Cmax) amounted to 4041.90 ng/mL and the “Lung tissue distribution Cmax” value stood at 43437.42 ng/g. In series [2] (mouse, in vivo, po), the Tmax is listed as 0.50 h and the t1/2 is reported as 2.03 h. The compound also came in with an AUC0-t in series [2] (mouse, in vivo, po, 24 h) of 11104.68 ng·h/mL.

“8-((4-(3-Chlorophenyl)piperidin-1-yl-2,2,6,6-d4)methyl-d2)-3,9-dihydroxybenzo[5,6]oxepino[4,3-b]benzofuran-7(5H)-one hydrochloride [YF032]” returned an MIC90 in series [1] of 0.0625 µg/mL. For the same compound, in series [2] (setting [4]), the “AUC0-∞” value was determined as 14032.28 ng·h/mL, the CL stood at 119 mL/min/kg, the Cmax stood at 4332.29 ng/mL and the Tmax came to 1.00 h. This compound yielded a t1/2 in series [2] (setting [4]) of 1.85 h. Besides, in series [2] (setting [5]), the AUC0-t was 14030.17 ng·h/mL. Further, the “reduction in bacterial load” value in series [3] (mouse, in vivo) turned out to be 0.81 log.

In series [1], “8-((4-Butanoylpiperidin-1-yl-2,2,6,6-d4)-methyl-d2)-3,9-dihydroxybenzo[5,6]oxepino[4,3-b]benzofuran-7(5H)-one hydrochloride [YF036]” returned an MIC90 of 0.03125 µg/mL. For the same compound, in series [2] (setting [4]), the “AUC0-∞” value was found to be 5883.88 ng·h/mL, the CL amounted to 283.3 mL/min/kg, the Cmax is 2084.39 ng/mL and the Tmax stood at 0.33 h. The t1/2 in series [2] (setting [4]) amounted to 4.75 h. The same compound returned an AUC0-t in series [2] (setting [5]) of 5655.66 ng·h/mL. The “reduction of pulmonary bacterial load” value in series [3] (mouse, in vivo) is recorded as 1.87 log.

Regarding `O=C1OCc2cc(O)ccc2-c2oc3ccc(O)c(CN4CCC(c5cccc(Cl)c5)CC4)c3c21` [Compound B], the MIC90 in series [1] (360 h, read-out: MIC90) worked out at 0.125 µg/mL (≈ 0.255 µM). Further, in series [2] (mouse, in vivo, po), the AUC(0-inf) was 10400 ng·h/mL; the AUC(0-t) at 24 h is 10300 ng·h/mL; the CL came to 161 mL/min/kg; the Cmax was 3570 ng/mL and 23400 ng/g. Also, in series [2] (mouse, in vivo, po), the Tmax came out at 1 h and the half-life was 1.74 h. Moreover, the “bacteriostatic activity in mice” value in series [3] (4 weeks intragastrically, Table 11 prints 50 mg/kg, text implies twice the dose of YF032) is reported as “no bacteriostatic activity”.

Turning to `CCCC(=O)C1CCN(Cc2c(O)ccc3oc4c(c23)C(=O)OCc2cc(O)ccc2-4)CC1` [Compound C], the MIC90 in series [1] (360 h, read-out: MIC90) was found to be 0.0625 µg/mL (≈ 0.139 µM). Besides, in series [2] (mouse, in vivo, po), the AUC(0-inf) is 5430 ng·h/mL; the AUC(0-t) at 24 h turned out to be 4960 ng·h/mL; the CL was 307.2 mL/min/kg; the Cmax is 944 ng/mL and 5420 ng/g. Besides, in series [2] (mouse, in vivo, po), the Tmax amounted to 0.5 h and the half-life was 7.12 h. For the same compound, the “reduction of pulmonary bacterial load” value in series [3] (mouse, in vivo) was determined as 1.99 log.

For `CCCC(O)C1CCN(Cc2c(O)ccc3oc4c(c23)C(=O)OCc2cc(O)ccc2-4)CC1` (stereo not drawn) [Compound D], the MIC90 in series [1] (360 h, read-out: MIC90) was found to be 0.0156 µg/mL (≈ 0.0346 µM). Further, in series [2] (mouse, in vivo, po), the AUC(0-inf) was 4500 ng·h/mL; the AUC(0-t) at 24 h worked out at 4470 ng·h/mL; the CL worked out at 371.3 mL/min/kg; the Cmax is 2110 ng/mL and 13500 ng/g. The half-life in series [2] (mouse, in vivo, po) is 2.86 h.

Compound `[2H]c1c(O)c(C([2H])([2H])N2C([2H])([2H])CC(C([2H])(O)CCC)CC2([2H])[2H])c2c3c(oc2c1[2H])-c1ccc(O)cc1C([2H])([2H])OC3=O` (stereo not drawn) [YF046, 3,9-Dihydroxy-8-((4-(1-hydroxybutyl-1-d)piperidin-2,2,6,6-d4-1-yl)methyl-d2)benzo[5,6]oxepino[4,3-b]benzofuran-7(5H)-one-5,5,10,11-d4 hydrochloride] gave an MIC90 in series [1] (setting [6]) of 0.0156 µg/mL.

As for `[2H]c1c(O)c(C([2H])([2H])N2CCC([2H])(C(O)C([2H])([2H])CC)CC2)c2c3c(oc2c1[2H])-c1ccc(O)cc1C([2H])([2H])OC3=O` (stereo not drawn) [YF047, 3,9-Dihydroxy-8-((4-(1-hydroxybutyl-2,2-d2)piperidin-1-yl-1-d)methyl-d2)benzo[5,6]oxepino[4,3-b]benzofuran-7(5H)-one-5,5,10,11-d4 hydrochloride], in series [1] (setting [6]), the MIC90 was found to be 0.0156 µg/mL.

As for `[2H]c1c(O)c(C([2H])([2H])N2CCC([2H])(C([2H])(O)C([2H])([2H])CC)CC2)c2c3c(oc2c1[2H])-c1ccc(O)cc1C([2H])([2H])OC3=O` (stereo not drawn) [YF048, 3,9-Dihydroxy-8-((4-(1-hydroxybutyl-1,2,2-d3)piperidin-1-yl-1-d)methyl-d2)benzo[5,6]oxepino[4,3-b]benzofuran-7(5H)-one-5,5,10,11-d4 hydrochloride], the MIC90 in series [1] (setting [6]) was 0.0156 µg/mL.

On to `CCOc1ccc(NC(C)=O)cc1` [phenacetin], for which, in the series with liver microsomes, the “metabolism of positive substrate” value is recorded as “almost completely metabolized”.

On to `C[C@]12CC[C@H]3[C@@H](CCC4=CC(=O)CC[C@@]43C)[C@@H]1CC[C@@H]2O` [testosterone], for which, in the series on liver microsomes (liver microsomes, after 90 min of incubation, 37 °C), the “metabolism of positive substrate” value was “almost completely metabolized”.

The values above are taken from patent EP4775586A1, “DEUTERATED TETRACYCLIC DERIVATIVE AND USE THEREOF” (priority 2023, dated 2025).
